Data as given in patent publication US20260028354A1, “TETRAHYDRONAPHTHALENE DERIVATIVES AS ESTROGEN RECEPTOR DEGRADERS” (REGENT OF THE UNIVERSITY OF MICHIGAN, priority 2022, published 2026).

assay: Western blot analysis for "B" compounds; type: cell-based; conditions: read-out: Traditional Western Degradation Potency (DC50)
Description: Western Blot Analysis. Western blot analysis was performed essentially as described previously. The cells treated with indicated compounds were lysed in Radioimmunoprecipitation Assay Protein Lysis and Extraction Buffer (25 mmol/I. Tris.HCl, pH 7.6, 150 mmol/L, NaCl, 1% Nonidet P-40, 1% sodium deoxycholate, and 0.1% sodium dodecyl sulfate) containing proteinase inhibitor cocktail (Roche Diagnostics, Mannheim, Germany). Equal amounts of total protein were electrophoresed through 10% SDS-polyacrylamide gels after determination of protein concentration by BCA assay (Fisher Scientific, Pittsburgh, PA), The separated protein bands were transferred onto PVDF membranes (GE Healthcare Life Sciences, Marlborough, MA) and blotted against different antibodies, as indicated. The blots were scanned, and the band intensities were quantified using GelQuant.NET software provided by biochemlabsolutions.com. The relative mean intensity of target proteins was expressed after normalization to the intensity of glyceraldehyde-3-phosphate dehydrogenase bands.

Row | Structure (SMILES) | DC50 [nM]
1 | O=C1CCC(N2C(=O)c3cc4c(cc3C2=O)CN(C(=O)CN2CCC3(CC2)CCN(c2ccc([C@@H]5c6ccc(O)cc6CC[C@@H]5c5ccccc5)cc2)CC3)C4)C(=O)N1 (mixture of isomers) [Compound B18, 2-(2,6-dioxopiperidin-3-yl)-6-(2-(9-(4-((1R,2S)-6-hydroxy-2-phenyl-1,2,3,4-tetrahydronaphthalen-1-yl)phenyl)-3,9-diazaspiro[5.5]undecan-3-yl)acetyl)-6,7-dihydropyrrolo[3,4-f]isoindole-1,3(2H,5H)-dione] | 10 to 100
2 | O=C1CCC(N2C(=O)c3cc4c(cc3C2=O)CN(CC(=O)N2CCC3(CCC(Oc5ccc([C@@H]6c7ccc(O)cc7CC[C@@H]6c6ccccc6)cc5)CC3)CC2)C4)C(=O)N1 (stereo partly drawn) [Compound B279, 2-(2,6-dioxopiperidin-3-yl)-6-(2-(9-(4-((1R,2S)-6-hydroxy-2-phenyl-1,2,3,4-tetrahydronaphthalen-1-yl)phenoxy)-3-azaspiro[5.5]undecan-3-yl)-2-oxoethyl)-6,7-dihydropyrrolo[3,4-f]isoindole-1,3(2H,5H)-dione] | > 100
3 | O=C1CCC(N2C(=O)c3cc4c(cc3C2=O)CN(CC(=O)N2CC3(CCN(c5ccc([C@H]6c7ccc(O)cc7CC[C@H]6c6ccccc6)cc5)CC3)C2)C4)C(=O)N1 (stereo partly drawn) [Compound B179, 2-(2,6-dioxopiperidin-3-yl)-6-(2-(7-(4-((1S,2R)-6-hydroxy-2-phenyl-1,2,3,4-tetrahydronaphthalen-1-yl)phenyl)-2,7-diazaspiro[3.5]nonan-2-yl)-2-oxoethyl)-6,7-dihydropyrrolo[3,4-f]isoindole-1,3(2H,5H)-dione] | > 100
4 | O=C1CCC(N2C(=O)c3cc4c(cc3C2=O)CN(c2ncc(CN3CC(Oc5ccc([C@@H]6c7ccc(O)cc7CC[C@@H]6c6ccccc6)cc5)C3)cn2)C4)C(=O)N1 (stereo partly drawn) [Compound B89, 2-(2,6-dioxopiperidin-3-yl)-6-(5-((3-(4-((1R,2S)-6-hydroxy-2-phenyl-1,2,3,4-tetrahydronaphthalen-1-yl)phenoxy)azetidin-1-yl)methyl)pyrimidin-2-yl)-6,7-dihydropyrrolo[3,4-f]isoindole-1,3(2H,5H)-dione] | > 100
5 | O=C1CCC(N2C(=O)c3cc4c(cc3C2=O)CN(CC2(F)CCN(CC3CN(c5ccc([C@@H]6c7ccc(O)cc7CC[C@@H]6c6ccccc6)cc5)C3)CC2)C4)C(=O)N1 (stereo partly drawn) [Compound B63, 2-(2,6-dioxopiperidin-3-yl)-6-((4-fluoro-1-((1-(4-((1R,2S)-6-hydroxy-2-phenyl-1,2,3,4-tetrahydronaphthalen-1-yl)phenyl)azetidin-3-yl)methyl)piperidin-4-yl)methyl)-6,7-dihydropyrrolo[3,4-f]isoindole-1,3(2H,5H)-dione] | > 100
6 | O=C1CCC(N2C(=O)c3cc4c(cc3C2=O)CN(CC(=O)N2CCC3(CC2)CC(Oc2ccc([C@@H]5c6ccc(O)cc6CC[C@@H]5c5ccccc5)cc2)C3)C4)C(=O)N1 (stereo partly drawn) [Compound B275, 2-(2,6-dioxopiperidin-3-yl)-6-(2-(2-(4-((1R,2S)-6-hydroxy-2-phenyl-1,2,3,4-tetrahydronaphthalen-1-yl)phenoxy)-7-azaspiro[3.5]nonan-7-yl)-2-oxoethyl)-6,7-dihydropyrrolo[3,4-f]isoindole-1,3(2H,5H)-dione] | > 100
7 | O=C1CCC(N2C(=O)c3cc4c(cc3C2=O)CN(c2ccc(CN3CC(Oc5ccc([C@@H]6c7ccc(O)cc7CC[C@@H]6c6ccccc6)cc5)C3)cn2)C4)C(=O)N1 (stereo partly drawn) [Compound B90, 2-(2,6-dioxopiperidin-3-yl)-6-(5-((3-(4-((1R,2S)-6-hydroxy-2-phenyl-1,2,3,4-tetrahydronaphthalen-1-yl)phenoxy)azetidin-1-yl)methyl)pyridin-2-yl)-6,7-dihydropyrrolo[3,4-f]isoindole-1,3(2H,5H)-dione] | > 100

Results, then the compound that gave them:

Row | DC50 [nM] | Structure (SMILES)
8 | > 100 | O=C1CCC(N2C(=O)c3cc4c(cc3C2=O)CN(CC(=O)N2CCC(Oc3ccc([C@@H]5c6ccc(O)cc6CC[C@@H]5c5ccccc5)cc3)CC2)C4)C(=O)N1 (stereo partly drawn) [Compound B284, 2-(2,6-dioxopiperidin-3-yl)-6-(2-(4-(4-((1R,2S)-6-hydroxy-2-phenyl-1,2,3,4-tetrahydronaphthalen-1-yl)phenoxy)piperidin-1-yl)-2-oxoethyl)-6,7-dihydropyrrolo[3,4-f]isoindole-1,3(2H,5H)-dione]
9 | 10 to 100 | C[C@@H]1CC2(CCN(c3ccc([C@@H]4c5ccc(O)cc5CC[C@@H]4c4ccc(F)cc4)cc3)CC2)CN1C(=O)CN1Cc2cc3c(cc2C1)C(=O)N(C1CCC(=O)NC1=O)C3=O (mixture of isomers) [Compound B26, 2-(2,6-dioxopiperidin-3-yl)-6-(2-((R)-8-(4-((1R,2S)-2-(4-fluorophenyl)-6-hydroxy-1,2,3,4-tetrahydronaphthalen-1-yl)phenyl)-3-methyl-2,8-diazaspiro[4.5]decan-2-yl)-2-oxoethyl)-6,7-dihydropyrrolo[3,4-f]isoindole-1,3(2H,5H)-dione]
10 | > 100 | O=C1CCC(N2C(=O)c3cc4c(cc3C2=O)CN(CC(=O)N2CCC3(CC2)CCN(c2ncc([C@H]5c6ccc(O)cc6CC[C@H]5c5ccccc5)cn2)CC3)C4)C(=O)N1 (mixture of isomers) [Compound B82, 2-(2,6-dioxopiperidin-3-yl)-6-(2-(9-(5-((1R,2R)-6-hydroxy-2-phenyl-1,2,3,4-tetrahydronaphthalen-1-yl)pyrimidin-2-yl)-3,9-diazaspiro[5.5]undecan-3-yl)-2-oxoethyl)-6,7-dihydropyrrolo[3,4-f]isoindole-1,3(2H,5H)-dione]
11 | > 100 | C[C@H]1CC2(CCN(CC(=O)N3Cc4cc5c(cc4C3)C(=O)N(C3CCC(=O)NC3=O)C5=O)CC2)CN1c1ccc([C@@H]2c3ccc(O)cc3CC[C@@H]2c2ccccc2)cc1 (stereo partly drawn) [Compound B25, 2-(2,6-dioxopiperidin-3-yl)-6-(2-((S)-2-(4-((1R,2S)-6-hydroxy-2-phenyl-1,2,3,4-tetrahydronaphthalen-1-yl)phenyl)-3-methyl-2,8-diazaspiro[4.5]decan-8-yl)acetyl)-6,7-dihydropyrrolo[3,4-f]isoindole-1,3(2H,5H)-dione]
12 | < 10 | O=C1CCC(N2C(=O)c3cc4c(cc3C2=O)CN(C2CCN(CC3CN(c5ccc([C@@H]6c7ccc(O)cc7CC[C@@H]6c6ccccc6)cc5)C3)CC2)C4)C(=O)N1 (stereo partly drawn) [Compound B61, 2-(2,6-dioxopiperidin-3-yl)-6-(1-((1-(4-((1R,2S)-6-hydroxy-2-phenyl-1,2,3,4-tetrahydronaphthalen-1-yl)phenyl)azetidin-3-yl)methyl)piperidin-4-yl)-6,7-dihydropyrrolo[3,4-f]isoindole-1,3(2H,5H)-dione]
13 | > 100 | O=C1CCC(N2C(=O)c3cc4c(cc3C2=O)CN(C(=O)CN2CCC3(CC2)CCN(c2c(F)cc([C@@H]5c6ccc(O)cc6CC[C@@H]5c5ccccc5)cc2F)C3)C4)C(=O)N1 (mixture of isomers) [Compound B34, 6-(2-(2-(2,6-difluoro-4-((1R,2S)-6-hydroxy-2-phenyl-1,2,3,4-tetrahydronaphthalen-1-yl)phenyl)-2,8-diazaspiro[4.5]decan-8-yl)acetyl)-2-(2,6-dioxopiperidin-3-yl)-6,7-dihydropyrrolo[3,4-f]isoindole-1,3(2H,5H)-dione]
